Measured values from the NIST ThermoML archive (doi:10.1021/je1012857).

Assay: xn = mol fraction of the nth substance listed
Conditions: 101 kPa, Liquid; for speed of sound: Sing-around technique in a fixed-path interferometer; for viscosity: Capillary tube (Ostwald / Ubbelohde) method

NCCN [ethane-1,2-diamine] + CC(C)CO
Conditions	mass density, 293.15 K [kg/m3]	mass density, 298.15 K [kg/m3]	speed of sound, 293.15 K [m/s]	speed of sound, 298.15 K [m/s]	speed of sound, 303.15 K [m/s]	viscosity, 298.15 K [mPa·s]	viscosity, 303.15 K [mPa·s]
x1 = 0.0664	809.959	806.006	1236.6	1219.4	1202.4	3.231	2.711
x1 = 0.0967	813.41	809.413	1250.3	1233.1	1216	3.209	2.699
x1 = 0.1652	821.052	816.964	1280.8	1263.3	1246.1	3.134	2.648
x1 = 0.2002	824.886	820.75	1296.8	1279.2	1261.8	3.094	2.625
x1 = 0.2617	831.17	826.969	1324.1	1306.3	1288.6	3.006	2.553
x1 = 0.3019	835.134	830.903	1342.3	1324.5	1306.7	2.94	2.502
x1 = 0.4093	844.755	840.455	1389.6	1371.4	1353.1	2.724	2.325
x1 = 0.5014	852.563	848.217	1431	1412.2	–	2.495	2.135
x1 = 0.6011	861.131	856.736	1478	1458.7	–	2.216	1.895
x1 = 0.6911	868.086	863.637	1520.5	1500.6	–	1.958	1.698
x1 = 0.7887	876.941	872.42	1571.6	1550.9	–	1.716	1.502
x1 = 0.8471	882.565	878.003	1603.7	1582.6	–	1.591	1.404
x1 = 0.8998	887.801	883.197	1634.3	1612.7	–	1.501	1.335
x1 = 0.9391	892.054	887.411	1658.5	1636.5	–	1.456	1.294
